Columns and labels:
NCI/ADR-RES = conditions: 10 μM
UO-31 = conditions: UO-31, 10 μM
K-562 = conditions: K-562, 10 μM
EKVX = conditions: 10 μM
U251 = conditions: U251, 10 μM
SK-MEL-5 = conditions: SK-MEL-5, 10 μM
UACC-257 = conditions: UACC-257, 10 μM
NCI-H226 = conditions: NCI-H226, 10 μM
COLO 205 = assay: NCI SRB screening; type: cell-based, human; conditions: COLO 205, 10 μM
IGROV1 = conditions: IGROV1, 10 μM
MDA-MB-468 = conditions: MDA-MB-468, 10 μM
LOX IMVI = assay: NCI SRB screening; type: cell-based, human; conditions: 10 μM
PC-3 = assay: NCI SRB screening; type: cell-based, human; conditions: PC-3, 10 μM
OVCAR-8 = conditions: OVCAR-8, 10 μM
A498 = conditions: A498, 10 μM
SN12C = conditions: 10 μM
HT29 = conditions: HT29, 10 μM
A549/ATCC = conditions: 10 μM
ACHN = conditions: 10 μM
SF-539 = conditions: SF-539, 10 μM
HCC-2998 = assay: NCI SRB screening; type: cell-based, human; conditions: HCC-2998, 10 μM
SK-MEL-28 = conditions: SK-MEL-28, 10 μM
NCI-H522 = conditions: NCI-H522, 10 μM
HOP-62 = conditions: HOP-62, 10 μM
OVCAR-4 = conditions: OVCAR-4, 10 μM
SF-295 = conditions: SF-295, 10 μM
SF-268 = conditions: SF-268, 10 μM
SNB-19 = conditions: SNB-19, 10 μM
MDA-MB-231 = assay: SRB anti-proliferative assay; type: cell-based; conditions: Homo sapiens; MDA-MB-231, SRB, mean ± SE of 3
Method: (§1) All the newly prepared target conjugates (7, 8a–c, 9 and 10a–e) were investigated for the prospective growth inhibitory actions against three different cancer cell lines viz.; A-549, MDA-MB-231, and HCT-116, using the sulforhodamine B colorimetric (SRB) assay. Staurosporine, a clinically used antitumor drug, was co-assayed as a reference agent for the experiment.
(§2) Examination of the cytotoxic activity for the target conjugates was carried out in accordance with the SRB colorimetric assay protocol, as described previously.
(§3) In vitro anti-proliferative activity assay
(§4) Cells at a concentration of 0.50 x
(§5) Sulfo-Rhodamine-B stain (SRB) assay.
(§6) cell to the wall of the plate.
(§7) wells were prepared for each individual dose).
(§8) Unbound dye was removed by four

HCT-116 = assay: SRB anti-proliferative assay; type: cell-based; conditions: Homo sapiens; HCT-116, SRB, mean ± SE of 3
Method: as §1, §2, §3, §4, §5, §6, §7, §8

MCF7 = conditions: MCF7, 10 μM
NCI-H322M = assay: NCI SRB screening; conditions: 10 μM
CCRF-CEM = conditions: 10 μM
KM12 = conditions: KM12, 10 μM
SK-MEL-2 = conditions: SK-MEL-2, 10 μM
786-0 = conditions: 786-0, 10 μM
OVCAR-5 = conditions: OVCAR-5, 10 μM
BT-549 = conditions: BT-549, 10 μM
T-47D = conditions: 10 μM
M14 = assay: NCI SRB screening; type: cell-based; conditions: M14, 10 μM
OVCAR-3 = conditions: OVCAR-3, 10 μM
MALME-3M = conditions: 10 μM
UACC-62 = conditions: UACC-62, 10 μM
SW-620 = conditions: SW-620, 10 μM

SMILES: C=CCn1cc(C=NN=C2C(=O)Nc3ccccc32)c2ccccc21 [Compound 10a]
- GI % (NCI/ADR-RES): – (Only GI % higher than 10% are shown)
- GI % (UO-31): 33%
- GI % (K-562): 30%
- GI % (EKVX): – (Only GI % higher than 10% are shown)
- GI % (U251): 10%
- GI % (SK-MEL-5): – (Only GI % higher than 10% are shown)
- GI % (UACC-257): – (Only GI % higher than 10% are shown)
- GI % (NCI-H226): 13%
- GI % (COLO 205): 30%
- GI % (IGROV1): 28%
- GI % (MDA-MB-468): 20%
- GI % (LOX IMVI): – (Only GI % higher than 10% are shown)
- GI % (PC-3): 22%
- GI % (OVCAR-8): 15%
- GI % (A498): – (Only GI % higher than 10% are shown)
- GI % (SN12C): – (Only GI % higher than 10% are shown)
- GI % (HT29): 10%
- GI % (A549/ATCC): – (Only GI % higher than 10% are shown)
- GI % (ACHN): – (Only GI % higher than 10% are shown)
- GI % (SF-539): – (Only GI % higher than 10% are shown)
- GI % (HCC-2998): – (Only GI % higher than 10% are shown)
- GI % (SK-MEL-28): – (Only GI % higher than 10% are shown)
- GI % (NCI-H522): 31%
- GI % (HOP-62): – (Only GI % higher than 10% are shown)
- GI % (OVCAR-4): 27%
- GI % (SF-295): – (Only GI % higher than 10% are shown)
- GI % (SF-268): – (Only GI % higher than 10% are shown)
- GI % (SNB-19): – (Only GI % higher than 10% are shown)
- IC50 (MDA-MB-231): 11.7 ± 1.04 µM
- IC50 (HCT-116): 7.7 ± 0.68 µM
- GI % (MCF7): 33%
- GI % (NCI-H322M): – (Only GI % higher than 10% are shown)
- GI % (CCRF-CEM): – (Only GI % higher than 10% are shown)
- GI % (KM12): – (Only GI % higher than 10% are shown)
- GI % (SK-MEL-2): – (Only GI % higher than 10% are shown)
- GI % (786-0): – (Only GI % higher than 10% are shown)
- GI % (OVCAR-5): – (Only GI % higher than 10% are shown)
- GI % (BT-549): – (Only GI % higher than 10% are shown)
- GI % (T-47D): 56%
- GI % (M14): 12%
- GI % (OVCAR-3): 21%
- GI % (MALME-3M): 26%
- GI % (UACC-62): 25%
- GI % (SW-620): – (Only GI % higher than 10% are shown)

SMILES: CC(C)n1cc(C=NN=C2C(=O)Nc3ccccc32)c2ccccc21 [Compound 9]
- GI % (NCI/ADR-RES): – (Only GI % higher than 10% are shown)
- GI % (UO-31): 14%
- GI % (K-562): – (Only GI % higher than 10% are shown)
- GI % (EKVX): 38%
- GI % (U251): – (Only GI % higher than 10% are shown)
- GI % (SK-MEL-5): – (Only GI % higher than 10% are shown)
- GI % (UACC-257): – (Only GI % higher than 10% are shown)
- GI % (NCI-H226): 16%
- GI % (COLO 205): – (Only GI % higher than 10% are shown)
- GI % (IGROV1): – (Only GI % higher than 10% are shown)
- GI % (MDA-MB-468): – (Only GI % higher than 10% are shown)
- GI % (LOX IMVI): – (Only GI % higher than 10% are shown)
- GI % (PC-3): – (Only GI % higher than 10% are shown)
- GI % (OVCAR-8): – (Only GI % higher than 10% are shown)
- GI % (A498): – (Only GI % higher than 10% are shown)
- GI % (SN12C): – (Only GI % higher than 10% are shown)
- GI % (HT29): – (Only GI % higher than 10% are shown)
- GI % (A549/ATCC): – (Only GI % higher than 10% are shown)
- GI % (ACHN): – (Only GI % higher than 10% are shown)
- GI % (SF-539): – (Only GI % higher than 10% are shown)
- GI % (HCC-2998): – (Only GI % higher than 10% are shown)
- GI % (SK-MEL-28): – (Only GI % higher than 10% are shown)
- GI % (NCI-H522): 10%
- GI % (HOP-62): – (Only GI % higher than 10% are shown)
- GI % (OVCAR-4): – (Only GI % higher than 10% are shown)
- GI % (SF-295): – (Only GI % higher than 10% are shown)
- GI % (SF-268): – (Only GI % higher than 10% are shown)
- GI % (SNB-19): – (Only GI % higher than 10% are shown)
- IC50 (MDA-MB-231): 10.4 ± 0.8 µM
- IC50 (HCT-116): 28.2 ± 1.73 µM
- GI % (MCF7): 10%
- GI % (NCI-H322M): – (Only GI % higher than 10% are shown)
- GI % (CCRF-CEM): – (Only GI % higher than 10% are shown)
- GI % (KM12): – (Only GI % higher than 10% are shown)
- GI % (SK-MEL-2): – (Only GI % higher than 10% are shown)
- GI % (786-0): – (Only GI % higher than 10% are shown)
- GI % (OVCAR-5): – (Only GI % higher than 10% are shown)
- GI % (BT-549): – (Only GI % higher than 10% are shown)
- GI % (T-47D): 13%
- GI % (M14): – (Only GI % higher than 10% are shown)
- GI % (OVCAR-3): – (Only GI % higher than 10% are shown)
- GI % (MALME-3M): – (Only GI % higher than 10% are shown)
- GI % (UACC-62): – (Only GI % higher than 10% are shown)
- GI % (SW-620): – (Only GI % higher than 10% are shown)

From article PMC7717600, “Novel [(N-alkyl-3-indolylmethylene)hydrazono]oxindoles arrest cell cycle and induce cell apoptosis by inhibiting CDK2 and Bcl-2: synthesis, biological evaluation and in silico studies” (Journal of Enzyme Inhibition and Medicinal Chemistry, 2020)
